Experimental data: the NIST ThermoML archive (doi:10.1021/je500093z)
Numbers after ± are expanded uncertainties.

Key:
[1] = for surface tension liquid-gas: Ring tensiometer; for viscosity / speed of sound / mass density: 101.33 kPa, Liquid; for speed of sound: Pulse-echo method; for mass density: Vibrating tube method
[2] = refractive index (Na D-line) (dimensionless); details: 101.33 kPa, Liquid, Standard Abbe refractometry

CC(C)C[P+](C)(CC(C)C)CC(C)C.Cc1ccc(S(=O)(=O)[O-])cc1 [triisobutylmethylphosphonium p-toluenesulfonate]
Details	mass density, [1] [kg/m3]	refractive index, [2]	speed of sound, [1] [m/s]	surface tension liquid-gas, [1] [mN/m]	viscosity, [1] [mPa·s]
298.15 K	1068 ± 6	1.5185 ± 0.0013	1628.8 ± 5.1	33.9 ± 1	2132.4 ± 430
303.15 K	1065 ± 6	1.5181 ± 0.0013	1610.6 ± 5.1	33.8 ± 1	1363.2 ± 250
308.15 K	1062 ± 6	1.5174 ± 0.0013	1585.6 ± 5.1	33.6 ± 1	896.08 ± 140
313.15 K	1059 ± 6	1.516 ± 0.0013	1567.6 ± 5.1	33.4 ± 1	606.71 ± 83
318.15 K	1056 ± 6	1.5151 ± 0.0013	1551.1 ± 5.1	33.2 ± 1	422.49 ± 50
323.15 K	1053 ± 6	1.5144 ± 0.0013	1535.7 ± 5.1	32.9 ± 0.9	302.17 ± 30
328.15 K	1050 ± 6	1.5123 ± 0.0013	1521.5 ± 5.1	32.8 ± 0.9	221.27 ± 19
333.15 K	1047 ± 6	1.5119 ± 0.0013	1508.3 ± 5.1	32.6 ± 0.9	165.53 ± 12

CCCCn1cc[n+](C)c1.O=S(=O)([O-])O [1-butyl-3-methylimidazolium hydrogen sulfate]
Details	mass density, [1] [kg/m3]	refractive index, [2]	speed of sound, [1] [m/s]	surface tension liquid-gas, [1] [mN/m]	viscosity, [1] [mPa·s]
298.15 K	1224 ± 8	1.5043 ± 0.0013	1689.8 ± 5.1	43.6 ± 1.2	439.36 ± 53
303.15 K	1220 ± 8	1.5 ± 0.0013	1676.7 ± 5.1	43.2 ± 1.2	321.95 ± 33
308.15 K	1217 ± 8	1.4965 ± 0.0013	1664.3 ± 5.1	42.8 ± 1.2	240.81 ± 21
313.15 K	1214 ± 8	1.4914 ± 0.0013	1652.1 ± 5.1	42.4 ± 1.2	183.54 ± 14
318.15 K	1211 ± 8	1.4857 ± 0.0013	1640.2 ± 5.1	42 ± 1.2	142.55 ± 8.9
323.15 K	1208 ± 8	1.4813 ± 0.0013	1628.5 ± 5.1	41.7 ± 1.2	112.37 ± 5.7
328.15 K	1204 ± 8	1.4762 ± 0.0013	1615.5 ± 5.1	41.3 ± 1.2	89.95 ± 3.7
333.15 K	1201 ± 8	1.4721 ± 0.0013	1601.5 ± 5.1	40.9 ± 1.2	72.88 ± 2.4

CCCC[n+]1ccc(C)cc1.F[B-](F)(F)F [1-butyl-4-methylpyridinium tetrafluoroborate]
Details	mass density, [1] [kg/m3]	refractive index, [2]	speed of sound, [1] [m/s]	surface tension liquid-gas, [1] [mN/m]	viscosity, [1] [mPa·s]
298.15 K	1190 ± 3	1.4507 ± 0.001	1602.3 ± 3.1	45.4 ± 0.9	202.86 ± 16
303.15 K	1186 ± 3	1.4502 ± 0.001	1589.7 ± 3.1	45.1 ± 0.9	146.57 ± 8.8
308.15 K	1183 ± 3	1.4495 ± 0.001	1577.4 ± 3.1	44.8 ± 0.9	108.7 ± 4.9
313.15 K	1179 ± 3	1.4488 ± 0.001	1565.2 ± 3.1	44.5 ± 0.9	82.49 ± 2.6
318.15 K	1176 ± 3	1.4482 ± 0.001	1553.2 ± 3.1	44.2 ± 0.9	63.94 ± 1.3
323.15 K	1173 ± 3	1.4475 ± 0.001	1541.2 ± 3.1	43.9 ± 0.9	50.51 ± 0.76
328.15 K	1169 ± 3	1.4469 ± 0.001	1529.6 ± 3.1	43.5 ± 0.9	40.6 ± 0.8
333.15 K	1166 ± 3	1.4463 ± 0.001	1517.9 ± 3.1	43.2 ± 0.9	33.14 ± 0.66

CCCCCCCC[n+]1ccn(C)c1.F[P-](F)(F)(F)(F)F [1-octyl-3-methylimidazolium hexafluorophosphate]
Details	mass density, [1] [kg/m3]	refractive index, [2]	speed of sound, [1] [m/s]	surface tension liquid-gas, [1] [mN/m]	viscosity, [1] [mPa·s]
298.15 K	1234 ± 8	1.4217 ± 0.0013	1404.7 ± 5.1	36.1 ± 1	603.44 ± 82
303.15 K	1231 ± 8	1.4211 ± 0.0013	1390.3 ± 5.1	35.9 ± 1	430.88 ± 51
308.15 K	1226 ± 8	1.4206 ± 0.0013	1376.6 ± 5.1	35.6 ± 1	314.44 ± 32
313.15 K	1223 ± 8	1.4201 ± 0.0013	1363.6 ± 5.1	35.3 ± 1	234.24 ± 20
318.15 K	1219 ± 8	1.4195 ± 0.0013	1351 ± 5.1	35.1 ± 1	177.79 ± 13
323.15 K	1215 ± 8	1.4186 ± 0.0013	1338.9 ± 5.1	34.9 ± 1	137.24 ± 8.3
328.15 K	1211 ± 8	1.4177 ± 0.0013	1327 ± 5.1	34.6 ± 1	107.58 ± 5.2
333.15 K	1208 ± 8	1.4167 ± 0.0013	1315.5 ± 5.1	34.3 ± 1	85.58 ± 3.3

CCCCn1cc[n+](C)c1.F[P-](F)(F)(F)(F)F [1-butyl-3-methylimidazolium hexafluorophosphate]
Details	mass density, [1] [kg/m3]	refractive index, [2]	speed of sound, [1] [m/s]	surface tension liquid-gas, [1] [mN/m]	viscosity, [1] [mPa·s]
298.15 K	1367 ± 4	1.4101 ± 0.001	1443.6 ± 3.1	43 ± 0.9	273.94 ± 26
303.15 K	1363 ± 4	1.4085 ± 0.001	1431.6 ± 3.1	42.6 ± 0.9	203.2 ± 16
308.15 K	1359 ± 4	1.4081 ± 0.001	1419.8 ± 3.1	42.2 ± 0.9	153.99 ± 9.7
313.15 K	1355 ± 4	1.407 ± 0.001	1408.3 ± 3.1	41.9 ± 0.8	118.96 ± 5.9
318.15 K	1351 ± 4	1.4068 ± 0.001	1396.9 ± 3.1	41.7 ± 0.8	93.44 ± 3.5
323.15 K	1347 ± 4	1.4058 ± 0.001	1385.8 ± 3.1	41.2 ± 0.8	74.6 ± 2
328.15 K	1343 ± 4	1.4053 ± 0.001	1374.7 ± 3.1	40.8 ± 0.8	60.43 ± 1.1
333.15 K	1339 ± 4	1.4042 ± 0.001	1363.8 ± 3.1	40.5 ± 0.8	49.62 ± 0.98

CCn1cc[n+](C)c1.COS(=O)(=O)[O-] [1-ethyl-3-methylimidazolium methylsulfate]
Details	mass density, [1] [kg/m3]	refractive index, [2]	speed of sound, [1] [m/s]	surface tension liquid-gas, [1] [mN/m]	viscosity, [1] [mPa·s]
298.15 K	1292 ± 2	1.4741 ± 0.0009	1762.1 ± 2.2	39.8 ± 0.7	94.91 ± 3.4
303.15 K	1289 ± 2	1.4739 ± 0.0009	1750.4 ± 2.2	39.5 ± 0.7	76.8 ± 2
308.15 K	1285 ± 2	1.4735 ± 0.0009	1738.7 ± 2.2	39.2 ± 0.7	61.66 ± 0.94
313.15 K	1282 ± 2	1.4721 ± 0.0009	1727 ± 2.2	38.9 ± 0.7	51.28 ± 0.52
318.15 K	1279 ± 2	1.4716 ± 0.0009	1715.5 ± 2.2	38.8 ± 0.7	42.42 ± 0.69
323.15 K	1275 ± 2	1.4706 ± 0.0009	1704 ± 2.2	38.4 ± 0.7	35.33 ± 0.58
328.15 K	1272 ± 2	1.4702 ± 0.0009	1692.6 ± 2.2	38.2 ± 0.6	30.11 ± 0.49
333.15 K	1268 ± 2	1.4698 ± 0.0009	1681.3 ± 2.2	38 ± 0.6	26.25 ± 0.43

COS(=O)(=O)[O-].Cn1cc[n+](C)c1 [1,3-dimethylimidazolium methylsulfate]
Details	mass density, [1] [kg/m3]	refractive index, [2]	speed of sound, [1] [m/s]	surface tension liquid-gas, [1] [mN/m]	viscosity, [1] [mPa·s]
298.15 K	1329 ± 4	1.4817 ± 0.001	1811.5 ± 3.1	57.6 ± 1.1	71.7 ± 1.8
303.15 K	1323 ± 4	1.4811 ± 0.001	1799.4 ± 3.1	57.3 ± 1.1	57.6 ± 0.97
308.15 K	1319 ± 4	1.4804 ± 0.001	1787.3 ± 3.1	56.8 ± 1.1	46.93 ± 0.92
313.15 K	1316 ± 4	1.4797 ± 0.001	1775.4 ± 3.1	56.4 ± 1.1	38.81 ± 0.77
318.15 K	1312 ± 4	1.4792 ± 0.001	1763.6 ± 3.1	56 ± 1.1	32.52 ± 0.64
323.15 K	1308 ± 4	1.4785 ± 0.001	1751.9 ± 3.1	55.5 ± 1.1	27.59 ± 0.55
328.15 K	1305 ± 4	1.4779 ± 0.001	1740.3 ± 3.1	55.1 ± 1.1	23.67 ± 0.47
333.15 K	1302 ± 4	1.4771 ± 0.001	1728.8 ± 3.1	54.8 ± 1.1	20.5 ± 0.41

CCCCCCn1cc[n+](C)c1.F[P-](F)(F)(F)(F)F [1-hexyl-3-methylimidazolium hexafluorophosphate]
Details	mass density, [1] [kg/m3]	refractive index, [2]	speed of sound, [1] [m/s]	surface tension liquid-gas, [1] [mN/m]	viscosity, [1] [mPa·s]
298.15 K	1292 ± 4	1.4179 ± 0.001	1424.4 ± 3.1	37.2 ± 0.8	349.17 ± 37
303.15 K	1288 ± 4	1.4161 ± 0.001	1411.3 ± 3.1	36.9 ± 0.8	253.96 ± 23
308.15 K	1284 ± 4	1.4148 ± 0.001	1399.6 ± 3.1	36.6 ± 0.7	188.77 ± 14
313.15 K	1280 ± 4	1.4134 ± 0.001	1386.7 ± 3.1	36.3 ± 0.7	142.99 ± 8.4
318.15 K	1276 ± 4	1.4115 ± 0.001	1374.9 ± 3.1	36 ± 0.7	110.24 ± 5
323.15 K	1272 ± 4	1.4104 ± 0.001	1363.4 ± 3.1	35.7 ± 0.7	86.42 ± 2.9
328.15 K	1268 ± 4	1.4088 ± 0.001	1352.1 ± 3.1	35.4 ± 0.7	68.87 ± 1.6
333.15 K	1264 ± 4	1.4075 ± 0.001	1340.8 ± 3.1	35.1 ± 0.7	55.62 ± 0.9
